Here are results for ten molecules from ChEMBL document CHEMBL3217413, “Chemical space as a source for new drugs” (Medchemcomm, 2010).

Assay [1] is described as follows: Inhibition of estrogen receptor (unknown origin). The arrangement: species or system Homo sapiens.
Assay [2] concerns the target Glutamate [NMDA] receptor (Homo sapiens) (UniProt Q05586+Q12879+Q13224+O15399+O60391+Q14957+Q8TCU5). Nature of the assay: (§1) Inhibition of NMDA receptor glycine binding site (unknown origin).
Assay [3] concerns the target Glutamate [NMDA] receptor. Described as §1. More on the design: species or system Homo sapiens.
Assay [4] relates to Nucleic Acid. Nature of the assay: Inhibition of TAT/TAR RNA interaction in HIV1. The assay is classed as nucleic-acid assay, Human immunodeficiency virus 1.
Assay [5] has as its target Adrenergic receptor alpha-1 (Homo sapiens) (UniProt P35348+P25100+P35368). Nature of the assay: Inhibition of alpha1 adrenergic receptor (unknown origin) at 10 uM by radioligand displacement assay. The assay is classed as protein assay.
For assay [6], the system named is Human immunodeficiency virus. Nature of the assay: Antiviral activity against HIV. The assay is classed as functional, organism-based. The conditions noted are these: Human immunodeficiency virus 1.

One may read the IC50 as the concentration that inhibits the measured activity by half. By inhibition is commonly meant the percentage by which the read-out fell short of the control.

The source made the active and inactive calls. The rule behind the calls is not given here. Bounds are passed on as bounds.

On to `Oc1ccc(-c2cc3ccc(O)cc3s2)cc1` [RALOXIFENE CORE], for which 0.34 µM corresponded to half-maximal inhibition in assay [1] (IC50).

As for `NC[C@H]1CNC(=O)C(=O)N1`, the inhibition entry in assay [2] is “inactive”.

For `C[C@H](N)CC(=O)NCC(=O)O`, in assay [3], the IC50 is 28 µM.

`NC[C@@H]1NC(=O)CNC1=O` returned a half-inhibitory concentration (IC50) in assay [3] of 370 µM.

In assay [4], `CCOc1cccc(CN(c2cccc(F)c2)C2CCNCC2)c1` showed a concentration for half-maximal inhibition (IC50) of 500 µM.

Regarding `CCNCCC(=O)NCCC(=O)O`, the IC50 in assay [3] came to 60 µM.

`NCCCC(=O)NCC(=O)O`: the IC50 in assay [3] turned out to be 61 µM.

`C[C@@H](NCCN)C(=O)O` returned an IC50 in assay [3] of 112 µM.

In the case of `OCc1ccccc1C1CCCNC1` (stereo not given), the inhibition in assay [5] is more than 50%.

`CC(C)n1c(O)nnc1Sc1cccc(C(F)(F)F)c1` yielded an IC50 in assay [6] of 80 µM.
